What was measured:
WT HIV-1 [1] = experiment: microbe, parasite or virus in culture; conditions: Human immunodeficiency virus 1, MT4, read-out: WT EC50
HIV-1 mutant K103N = experiment: microbe, parasite or virus in culture; conditions: Human immunodeficiency virus 1, MT4, read-out: EC50 K103N
[2] = Cytotoxicity in uninfected; conditions: human, mock-infected (uninfected) MT-4 cells, CC50, uninfected MT-4 cells, MTT
WT HIV-1 [3] = conditions: Selectivity index CC50/EC50 (WT)
HIV-1 mutant L100I = experiment: microbe, parasite or virus in culture; conditions: Human immunodeficiency virus 1, MT4, read-out: EC50 L100I
HIV-1 mutant Y188L = experiment: microbe, parasite or virus in culture; conditions: Human immunodeficiency virus 1, MT4, read-out: EC50 Y188L
HIV-1 mutant E138K = experiment: microbe, parasite or virus in culture; conditions: Human immunodeficiency virus 1, MT4, read-out: EC50 E138K
WT HIV-1 RT = WT HIV-1 RT (Human immunodeficiency virus type 1 group M subtype B, UniProt P03366); experiment: biochemical
CYP2D6 = CYP2D6 (Homo sapiens, UniProt P10635); experiment: biochemical
Sequence of CYP2D6 (P10635 whole entry): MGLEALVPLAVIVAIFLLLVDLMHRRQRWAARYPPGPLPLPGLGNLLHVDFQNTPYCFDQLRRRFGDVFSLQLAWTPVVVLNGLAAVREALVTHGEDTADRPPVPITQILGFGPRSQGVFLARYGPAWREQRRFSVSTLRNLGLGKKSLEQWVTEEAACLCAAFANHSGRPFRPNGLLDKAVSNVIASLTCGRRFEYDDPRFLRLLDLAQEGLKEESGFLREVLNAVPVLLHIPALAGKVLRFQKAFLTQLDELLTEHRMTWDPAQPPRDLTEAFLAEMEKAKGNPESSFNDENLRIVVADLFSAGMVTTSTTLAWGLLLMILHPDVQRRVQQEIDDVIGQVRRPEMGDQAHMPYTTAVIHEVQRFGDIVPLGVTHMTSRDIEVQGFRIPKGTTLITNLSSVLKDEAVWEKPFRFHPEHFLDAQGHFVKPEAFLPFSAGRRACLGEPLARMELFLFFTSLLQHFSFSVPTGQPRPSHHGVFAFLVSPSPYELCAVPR

Cc1cc(-c2ccncc2)cc(C)c1Oc1nc(Nc2ccc(C#N)cc2)ncc1CO [9h, 4-((4-(2,6-Dimethyl-4-(pyridin-4-yl)phenoxy)-5-(hydroxymethyl)pyrimidin-2-yl)amino)benzonitrile]
EC50 (WT HIV-1 [1]): 0.0071 ± 0.003 µM
EC50 (HIV-1 mutant K103N): 0.0201 ± 0.003 µM
CC50 at 5 days [2]: 221 ± 12.5 µM
SI (WT HIV-1 [3]): 30,868
EC50 (HIV-1 mutant L100I): 0.323 ± 0.0445 µM
EC50 (HIV-1 mutant Y188L): 1.58 ± 0.103 µM
EC50 (HIV-1 mutant E138K): 0.0389 ± 0.0041 µM

N#Cc1ccc(Nc2ncc(CO)c(Oc3ccc(-c4ccc(C#N)cc4)cc3Cl)n2)cc1 [9e, 3′-Chloro-4′-((2-((4-cyanophenyl)amino)-5-(hydroxymethyl)pyrimidin-4-yl)oxy)-[1,1′-biphenyl]-4-carbonitrile]
EC50 (WT HIV-1 [1]): 0.0026 ± 0.0005 µM
EC50 (HIV-1 mutant K103N): 0.0038 ± 0.0002 µM
CC50 at 5 days [2]: > 44.1 µM
SI (WT HIV-1 [3]): >17,021
EC50 (HIV-1 mutant L100I): 0.0185 ± 0.0036 µM
EC50 (HIV-1 mutant Y188L): 0.564 ± 0.097 µM
EC50 (HIV-1 mutant E138K): 0.011 ± 0.0021 µM
IC50 (WT HIV-1 RT): 0.029 ± 0.003 µM

Cc1cc(C#N)cc(C)c1Oc1nc(Nc2ccc(C#N)cc2)nc(N)c1Br [ETR, etravirine, reference compound]
EC50 (WT HIV-1 [1]): 0.006 µM
EC50 (HIV-1 mutant K103N): 0.003 µM
CC50 at 5 days [2]: > 4.6 µM
EC50 (HIV-1 mutant L100I): 0.007 µM
EC50 (HIV-1 mutant Y188L): 0.02 ± 0.01 µM
EC50 (HIV-1 mutant E138K): 0.007 ± 0.01 µM

COc1ccc2c(c1)[C@]13CCCC[C@@H]1[C@H](C2)N(C)CC3 [Dextromethorphan]
IC50 (CYP2D6): 0.0397 µM

Cc1cc(-c2ccc(C#N)cc2)cc(C)c1Oc1nc(Nc2ccc(C#N)cc2)ncc1CO [9a, 4′-((2-((4-Cyanophenyl)amino)-5-(hydroxymethyl)pyrimidin-4-yl)oxy)-3′,5′-dimethyl-[1,1′-biphenyl]-4-carbonitrile]
EC50 (WT HIV-1 [1]): 0.0025 ± 0.0006 µM
EC50 (HIV-1 mutant K103N): 0.0032 ± 0.0007 µM
CC50 at 5 days [2]: 15.6 ± 4.6 µM
SI (WT HIV-1 [3]): 6343
EC50 (HIV-1 mutant L100I): 0.0063 ± 0.0003 µM
EC50 (HIV-1 mutant Y188L): 0.033 ± 0.004 µM
EC50 (HIV-1 mutant E138K): 0.0065 ± 0.0005 µM
IC50 (WT HIV-1 RT): 0.035 ± 0.008 µM

N#Cc1ccc(Nc2ncc(CO)c(Oc3ccc(-c4ccncc4)cc3F)n2)cc1 [9j, 4-((4-(2-Fluoro-4-(pyridin-4-yl)phenoxy)-5-(hydroxymethyl)pyrimidin-2-yl)amino)benzonitrile]
EC50 (WT HIV-1 [1]): 0.0047 ± 0.0007 µM
EC50 (HIV-1 mutant K103N): 0.0351 ± 0.0081 µM
CC50 at 5 days [2]: > 48.4 µM
SI (WT HIV-1 [3]): >10,256
EC50 (HIV-1 mutant L100I): 0.327 ± 0.0449 µM
EC50 (HIV-1 mutant Y188L): > 48.4 µM
EC50 (HIV-1 mutant E138K): 0.0424 ± 0.0067 µM

COc1cc(-c2ccc(C#N)cc2)ccc1Oc1nc(Nc2ccc(C#N)cc2)ncc1CO [9c, 4′-((2-((4-Cyanophenyl)amino)-5-(hydroxymethyl)pyrimidin-4-yl)oxy)-3′-methoxy-[1,1′-biphenyl]-4-carbonitrile]
EC50 (WT HIV-1 [1]): 0.0017 ± 0.0001 µM
EC50 (HIV-1 mutant K103N): 0.0065 ± 0.0002 µM
CC50 at 5 days [2]: 258 ± 1.2 µM
SI (WT HIV-1 [3]): 149,540
EC50 (HIV-1 mutant L100I): 0.0205 ± 0.0013 µM
EC50 (HIV-1 mutant Y188L): 0.137 ± 0.0081 µM
EC50 (HIV-1 mutant E138K): 0.0194 ± 0.0048 µM
IC50 (WT HIV-1 RT): 0.021 ± 0.008 µM

Cc1ccnc2c1NC(=O)c1cccnc1N2C1CC1 [NVP, nevirapine, reference compound]
EC50 (HIV-1 mutant K103N): > 10.1 µM
CC50 at 5 days [2]: > 15 µM
EC50 (HIV-1 mutant L100I): 2.1 ± 0.75 µM
EC50 (HIV-1 mutant Y188L): > 15.9 µM
EC50 (HIV-1 mutant E138K): 2.1 ± 0.03 µM

Reference: article PMC10372819 (Acta Pharmaceutica Sinica. B, 2023)
